These results are taken from PubChem BioAssay AID1963438 (Molecular Pharmacology Branch, DTP, NCI, 2024).

Broadly, the viability, T/C is the ratio of treated to control. As usually defined, the IC50 is the midpoint of a concentration-inhibition curve.

Several values for one entry are separate records, joined by “and”; a condition that tells them apart may be missing. Identical values can stand only once.

This experiment concerns NCI-H510 multicellular tumor spheroid growth, % test/control. Kind of experiment: Anticancer human tumor NCI-H510 cell line growth inhibition [Asc].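 For all read-outs here: spheroids exposed to agents for 7 days.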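 For viability, T/C: 100% = DMSO vehicle control wells.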 Conditions: for viability, T/C: stronger effect = lower value. The procedure:
Multicellular complex tumor spheroid response to apoptosis pathway targeting inhibitors Alrizomadlin, Pelcitoclax, and Dasminapant in combination with a variety of drugs and investigational agents in selected tumor cell lines
The MDM2 inhibitor alrizomadlin, the Bcl-2/Bcl-xL inhibitor pelcitoclax, and the IAPs inhibitor dasminapant were evaluated both individually and in combination with standard of care and investigational anticancer small molecules within a complex spheroid model of solid tumors. . Complex spheroids include a stromal component modeled by human endothelial cells (HUVEC) and fibroblasts modeled by human mesenchymal stem cells (MSCs). The concentration ranges selected for each drug and investigational agent were based upon clinically achievable concentrations if the clinical Cmax of the agent was known.
Compounds. The drugs and investigational agents: alrizomadlin (APG-115; NSC831270), pelcitoclax (APG-1252; NSC835773), dasminapant (APG-1387;NSC834197), TAK-243 (NSC785004), copanlisib (NSC809693), olaparib (NSC753686), talazoparib (NSC767125), cobimetinib (NSC 768068), eltanexor (KPT-8602, NSC 794443), abemaciclib (NSC 768073), sotorasib (NSC818433), adagrasib (NSC 831453), MRTX-1133 (NSC 836407), Iadademestat (ORY1001, NSC 806812), and RMC-4630 (NSC839698), were obtained from the NCI Developmental Therapeutics Program Chemical Repository. The FDA-approved anticancer drug set is available from the Developmental Therapeutics Program at https://dtp.cancer.gov/organization/dscb/obtaining/available plates.htm. […] The stock solutions were prepared in dimethyl sulfoxide (DMSO, Sigma-Aldrich, St. Louis, MO, cat. D2650) at 800-fold the tested concentration and stored at -70 degrees C prior to their use. All drugs and investigational agents were tested over a range starting from a high concentration at or near the clinical Cmax and decreasing in half-log increments. If the clinical Cmax for an agent had not been determined, the highest concentration tested was 10 microM.
The patient-derived cancer (PDC) cell lines include five colon adenocarcinomas: 186277-243-T-J2-PDC, 616215-338-R-J1-PDC, 439559-082-T-J2-PDC, 463943-066-T-J2-PDC, and 519858-162-T-J1-PDC; three pancreatic carcinomas: 323965-272-R-J2-PDC, 521955-158-R6-J3-PDC, and 521955-158-R2-J5-PDC; two uterine sarcomas: 327498-152-R-J2-PDC and 993429-296-R-J1-PDC; two rhabdomyosarcomas: 755483-174-R-J1-PDC and 772245-204-R-J1-PDC; two soft tissue sarcomas: 126254-015-R-J1-PDC and 494315-158-R-J1-PDC; two malignant fibrous histiocytomas: 317291-083-R-J1-PDC and 596521-263-R-J1-PDC; two breast carcinomas: 171881-019-R-J1-PDC and 885512-296-R-J2-PDC; and one ovarian carcinoma: 6556581-035-R-J-PDC were obtained from the NCI PDMR, (https://pdmr.cancer.gov). The established cell lines HSSY-2 synovial sarcoma (RRID:CVCL 8719), SYO-1 synovial sarcoma (RRID:CVCL_7146), MPNST malignant peripheral neural sheath tumor were obtained from the Sloan Kettering Institute. The following established cell lines were purchased from the American Type Culture Collection (ATCC, Manassas, VA), Sor the received from the NCI repository:, PANC-1 pancreatic carcinoma (CRL-1469, RRID:CVCL_0480), OVCAR-5 ovarian carcinoma (RRID:CVCL_1628), OVCAR-8 ovarian carcinoma (RRID:CVCL_1629), , MCF-7 breast carcinoma (CRL-12584, RRID:CVCL_0031), MDA-MB-231 breast carcinoma (CRL-12532, RRID:CVCL_0062), NCI-H1876 small cell lung carcinoma (CRL-5902, RRID:CVCL_1503), NCI-H510A small cell lung carcinoma (HTB-184, RRID:CVCL_1565), NCI-H1417 (CRL-5869, RRID:CVCL_1469), and NCI-H196 small cell lung carcinoma (CRL-5823, RRID:CVCL_1509). Dr. Peter Houghton (Greehey Children's Cancer Research Institute, University of Texas Health Science Center, San Antonio, TX) provided Rh-18 rhabdomyosarcoma (RRID:CVCL_1659). Pooled donor human umbilical vein endothelial cells (HUVEC, Lonza, cat. CC-2519) and human mesenchymal stem cells (hMSC, Lonza, cat. PT-2501) were purchased from Lonza (Walkersville, MD).
Cell Culture. […]

Setting [1] is: compound alone, run of 10/11/2022.

With `C#Cc1c(F)ccc2cc(O)cc(-c3ncc4c(N5CC6CCC(C5)N6)nc(OCC56CCCN5CC(F)C6)nc4c3F)c12` (configuration not stated), the viability, T/C was 111% and 93.4% and 94.4% (compound 0.0316 µM); 104% and 103% and 112% (compound 0.1 µM); 99.3% and 99.1% and 92.8% (compound 0.316 µM); 94.8% and 105% and 84.2% (compound 1 µM); 106% and 112% and 123% (compound 3.16 µM); 99.8% and 88.4% and 92.8% (compound 10 µM). The IC50 (curve of compound) is greater than 10000 nM.

For the compound `C=C(F)C(=O)N1CCN(c2nc(OCC3CCCN3C)nc3c2CCN(c2cccc4cccc(Cl)c24)C3)CC1CC#N` (configuration not stated), the viability, T/C (compound 0.0316 µM) is 109% and 85.9% and 108%; the viability, T/C (compound 0.1 µM) is 87.2% and 84.2% and 92%; the viability, T/C (compound 0.316 µM) was 72.8% and 84.8% and 97.8%; the viability, T/C (compound 1 µM) is 67.5% and 68.6% and 102%; the viability, T/C (compound 3.16 µM) is 1.87% and 8.13% and 16.5%; the viability, T/C (compound 10 µM) was 0.2% and 0.21% and 0.25%. The IC50 (curve of compound) is 1340 nM and 1420 nM and 1990 nM.

On to `C=CC(=O)N1CCN(c2nc(=O)n(-c3c(C)ccnc3C(C)C)c3nc(-c4c(O)cccc4F)c(F)cc23)C(C)C1` (configuration not stated), for which the viability, T/C reads like this: (compound 0.0316 µM) 101% and 89.6% and 100%; (compound 0.1 µM) 100% and 95.4% and 104%; (compound 0.316 µM) 105% and 90.3% and 98.7%; (compound 1 µM) 94.5% and 82.8% and 106%; (compound 3.16 µM) 108% (2×) and 100%; (compound 10 µM) 96.6% and 75.9% and 110%. Besides, where the note is “curve of compound”, the half-inhibitory concentration (IC50) was greater than 10000 nM.

For `CCN1C(C(=O)NC23CCC(C(=O)O)(CC2)CC3)C(c2cccc(Cl)c2F)C2(C(=O)Nc3cc(Cl)ccc32)C12CCCCC2` (configuration not stated), the viability, T/C (compound 0.00949 µM) was 103% and 92.8%. Moreover, the half-maximal inhibitory concentration (IC50) runs as follows: under setting [1], greater than 3000 nM; (curve of compound) greater than 3000 nM.

Regarding `CCN1CCN(Cc2ccc(Nc3ncc(F)c(-c4cc(F)c5nc(C)n(C(C)C)c5c4)n3)nc2)CC1`, the viability, T/C was 99.7% and 83.9% and 97.2% (compound 0.00316 µM); 95.4% and 91.7% and 83.9% (compound 0.01 µM); 104% and 102% and 97.5% (compound 0.0316 µM); 93.1% and 78.6% and 112% (compound 0.1 µM); 99.7% and 82.1% and 106% (compound 0.316 µM); 76.2% and 98% and 106% (compound 1 µM). Moreover, where the note is “curve of compound”, the IC50 is greater than 1000 nM.

Consider `CNC(C)C(=O)NC1CN(S(=O)(=O)c2cccc(S(=O)(=O)N3CCC4CCC(C(=O)NC(c5ccccc5)c5ccccc5)N4C(=O)C(NC(=O)C(C)NC)C3)c2)CCC2CCC(C(=O)NC(c3ccccc3)c3ccccc3)N2C1=O` (configuration not stated), for which the viability, T/C is 103% and 100% and 104% (compound 0.00316 µM); 106% [middle of 14 runs] (compound 0.01 µM); 102% [middle of 14 runs] (compound 0.0316 µM); 103% [middle of 14 runs] (compound 0.1 µM). Moreover, the IC50 is greater than 1000 nM (compound alone, run of 10/24/2022); greater than 1000 nM (compound alone, run of 11/15/2022); greater than 1000 nM (curve of compound).

Regarding `COc1c(OCCCN2CCOCC2)ccc2c3n(c(=NC(=O)c4cnc(N)nc4)nc12)CCN3`, the viability, T/C (compound 0.00316 µM) was 114% and 91.5% and 87.9%; the viability, T/C (compound 0.01 µM) is 97.9% and 112% and 97.6%; the viability, T/C (compound 0.0316 µM) was 93.2% and 99.9% and 112%; the viability, T/C (compound 0.1 µM) is 93.2% and 52.7% and 108%; the viability, T/C (compound 0.316 µM) was 110% and 89.6% and 115%; the viability, T/C (compound 1 µM) is 81.5% and 92.5% and 114%. In addition, the IC50 (curve of compound) was greater than 1000 nM.

As for `Cc1c(S(C)(=O)=O)c(-c2cc(F)cc(N3CCN(c4ccc(NS(=O)(=O)c5ccc(NC(CCN6CCC(C(=O)OCCCP(=O)(O)O)CC6)CSc6ccccc6)c(S(=O)(=O)C(F)(F)F)c5)cc4)CC3)c2)c(-c2ccc(Cl)cc2)n1C(C)C` (configuration not stated), under “compound 1 µM”, the viability, T/C was 95.2% [middle of 14 runs]. For the same compound, the 50% inhibitory concentration (IC50) under setting [1] was greater than 10000 nM.

For `Cc1nc(N2CCC3(CC2)COC(C)C3N)c(CO)nc1Sc1ccnc(N)c1Cl` (configuration not stated), the viability, T/C is 103% and 93.2% and 86.2% (compound 0.00949 µM); 101% and 121% and 91% (compound 0.03 µM); 103% and 109% and 98.7% (compound 0.0949 µM); 99% and 118% and 99.2% (compound 0.3 µM); 96.9% and 107% and 96.8% (compound 0.949 µM); 100% and 106% and 80.6% (compound 3 µM). Further, the IC50 (curve of compound) is greater than 3000 nM.

As to `Cn1ncnc1[C@H]1c2n[nH]c(=O)c3cc(F)cc(c23)N[C@@H]1c1ccc(F)cc1`, the viability, T/C was 106% and 114% (2×) (compound 0.000316 µM); 98.2% and 93.5% and 70.4% (compound 0.001 µM); 80.9% and 92.1% and 86.5% (compound 0.00316 µM); 23.2% and 96.1% and 24.8% (compound 0.01 µM); 14.6% and 83.9% and 22.1% (compound 0.0316 µM); 12.7% and 99.4% and 18.4% (compound 0.1 µM).

In the case of `NC(=O)C(=Cn1cnc(-c2cc(C(F)(F)F)cc(C(F)(F)F)c2)n1)c1cncnc1`, the viability, T/C reads like this: (compound 0.000949 µM) 91.3% and 79.1% and 81.8%; (compound 0.003 µM) 95.1% and 92.5% and 90.3%; (compound 0.00949 µM) 97.5% and 68.2% and 97.9%; (compound 0.03 µM) 87.7% and 81.1% and 98%; (compound 0.0949 µM) 76% and 44% and 86.5%; (compound 0.3 µM) 14.6% and 47% and 69.7%. The concentration for half-maximal inhibition (IC50) (curve of compound) was 154 nM and 81.7 nM and > 300 nM.

For the compound `NC1CCC(NC2CC2c2ccccc2)CC1` (configuration not stated), the viability, T/C was 67.7% and 77.1% and 95.6% (compound 0.000316 µM); 69.7% and 75.9% and 98.6% (compound 0.001 µM); 79.1% and 83% and 96.4% (compound 0.00316 µM); 69.3% and 84.8% and 101% (compound 0.01 µM); 89.1% and 83.1% and 91.1% (compound 0.0316 µM); 65% and 77.7% and 93% (compound 0.1 µM). Moreover, the IC50 (curve of compound) is greater than 100 nM.

With `O=C(c1cc(Cc2n[nH]c(=O)c3ccccc23)ccc1F)N1CCN(C(=O)C2CC2)CC1`, the viability, T/C by setting is: (compound 0.0316 µM) 93% and 95.9% and 99.4%; (compound 0.1 µM) 101% and 80.6% and 86.1%; (compound 0.316 µM) 69.5% and 59% and 83.9%; (compound 1 µM) 60% and 90.4% and 76.8%; (compound 3.16 µM) 29% and 43.1% and 88%. Besides, the IC50 (curve of compound) is 1300 nM and 2570 nM and > 10000 nM.

With `O=C(c1ccc(F)c(F)c1Nc1ccc(I)cc1F)N1CC(O)([C@@H]2CCCCN2)C1`, the viability, T/C was 80.5% and 85.3% and 98% (compound 0.00316 µM); 119% and 91% and 90.4% (compound 0.01 µM); 95.7% and 106% and 86.9% (compound 0.0316 µM); 97.4% and 102% and 86.8% (compound 0.1 µM); 110% and 89% and 87.3% (compound 0.316 µM); 72.5% and 86% and 83.7% (compound 1 µM). The IC50 (curve of compound) is greater than 1000 nM.
